Assay results as given in patent US20260042754A1, “Substituted Bicyclic Heteroaryl Sulfonamide Derivatives for the Treatment of Cancer” (NODUS ONCOLOGY LIMITED, priority 2022, published 2026).
Where two headings read alike, the source gives them in different places.

Legend:
[1] = biological target: Recombinant His-tagged human PARG protein (Homo sapiens (Human), UniProt Q86W56); experiment: PARG enzymatic assay (TFMU-ADPr fluorescence); type: biochemical; details: 1 nM enzyme, 200 μM TFMU-ADPr, read after 30 minutes
Experimental: Inhibition of PARG enzymatic activity by compounds was determined as follows: Recombinant His-tagged human PARG protein expressed in Sf21 insect cells (Adipogen AG, #40T-0022) was aliquoted and stored at −80° C. until use. The artificial enzyme substrate 4-(trifluoromethyl)umbelliferone (TFMU)-ADPr was prepared essentially as described (Drown B S et al, Cell Chemical Biology 2018) and stored at −20° C. as 10 mM stock solutions in DMSO (dimethyl sulfoxide) until use. For reactions, typical final concentration of the enzyme was 1 nM and of the TFMU-ADPr 200 μM. Reactions were carried out in black 384-well low volume round bottom assay plates (Corning, #4514) in a final volume of 10 μL. To this end, PARG was diluted to 1.67 nM in reaction buffer (50 mM K2HPO4, 50 mM KCl, 10 mM β-mercaptoethanol, pH 7.4) and 6 μL were dispensed per assay well using a multichannel pipette. Then compound was dispensed into each well using an Echo dispenser (BeckmanCoulter) to yield the pre-specified final concentration of the range of concentrations to be tested (typically 8-point serial concentrations ranging from either from 0.01 to 10 μM, or from 0.001 to 1 μM, or from 0.0001 to 0.1 μM), and being volume-corrected with 100% DMSO (0.5% final DMSO concentration in reaction mixtures). Plates were mixed, and after 15 minutes 4 μL TFMU-ADPr was added into each well using a multichannel pipette followed by brief mixing. Fluorescence intensity signals were then measured after 30 minutes on an EnVision microplate reader (PerkinElmer) using 380/10 nm and 535/25 nm filters for the excitation and emission, respectively (gain: 150). The assay window was set using DMSO control (top) and a control containing no PARG enzyme (bottom). Delta values were plotted as concentration-response curves fitted to a sigmoidal 4-parameter logistic model to calculate IC50 values (Scigilian Analyze).

RMUG-S = experiment: Modified cell proliferation assay (CellTiter-Glo), RMUG-S, Examples 12-44; type: cell-based; details: Examples 12-44: modified protocol, 384-well, 300 cells per well, 120 h; highest concentration tested 9000 nM; read-out: RMUG-S GI50 (high PARG dependency)
Experimental: (§1) The cell proliferation assay protocol was modified and used for RMUG-S for Examples 12-44, and subsequently used to test Examples 1-44 in the NCI-H1650 cell line.
(§2) NCI-H1650 (ATCC, #CRL-5883) or RMUG-S were seeded on day 1 at 300 cells per well in a 384-well plate (Greiner, #781080) that assure assay linearity and optimal signal intensity in 25 μL of RPMI1640 media (Pan Biotech, #P04-22100) containing 10% FCS (Capricorn, #FBS-11A; Lot. CP22-5141) and 1% Glutamine (Pan Biotech, #P04-80100). After incubation for 24 h in humidified chambers at 37° C./5% CO2, compounds/DMSO were dispensed at different concentrations using an Echo 520 (Beckman Coulter). Cells were further incubated for 120 h at 37° C. and 5% CO2. Cells treated with the compound vehicle DMSO were used as negative controls and cells treated with 10 μM Staurosporine (LC Laboratories, #S-9300) served as positive controls.
(§3) At day 6 the CellTiter Glo Reagent was prepared according to the instructions of the kit (Promega Inc.): Reagent was mixed 1:1 with cell culture medium. Thereon, mixture and assay plates were equilibrated at room temperature for 20 min. Equal volumes of the reagent-medium-mixture were added to the volume of culture medium present in each well. The plates were mixed at […] for 2 minutes on an orbital shaker (Timix5, Edmund Buehler GmbH). The microplates were then incubated at room temperature for 10 minutes for stabilization of the luminescent signal. Following incubation, the luminescence was recorded on a Victor X5 microplate reader (Perkin Elmer) using a 200 ms integration time. The data was then analyzed with Excel using the XLFIT Plugin (dose response Fit 205) for determination of the concentration necessary for half-maximal inhibition (i.e. the inflection point of the fitted curve).
(§4) As quality control the Z′-factor was calculated from 16 positive and negative control values. Only assay results showing a Z′-factor≥0.5 were used for further analysis.

NCI-H1650 = experiment: Modified cell proliferation assay (CellTiter-Glo), NCI-H1650; type: cell-based; details: modified protocol, 384-well, 300 cells per well, 120 h, highest concentration tested 30000 nM, read-out: NCI-H1650 GI50 (high PARG dependency)
Experimental: as §1, §2, §3, §4

[2] = biological target: human PARG (PARG-NanoLuc fusion in HEK293T cells) (Homo sapiens (Human), UniProt Q86W56); experiment: PARG NanoBRET-based cellular target engagement assay; type: cell-based; details: HEK293T cells transfected with PARG-NanoLuc, NanoBRET probe 0.89 μM, 2 hours; read-out: PARG TE IC50
Experimental: PARG Nano-luciferase construct: The PARG-NanoLuc® fusion vector was generated by Promega, by inserting the full length human PARG cDNA sequence encoding the 976 amino acid protein (Gene ID: 8505, UniProt: Q86W56) into the pNLF1-C [CMV/Hygro] vector (C-terminal fusions with NanoLuc® enzyme).
PARG target engagement tracer synthesis: The NanoBRET tracer for PARG was prepared following a previously reported general tracer synthesis procedure.
PARG Probe Displacement Assay Using NanoBRET: HEK293T (DSMZ #ACC 635) cells transiently transfected with the PARG-NanoLuc fusion construct were resuspended in phenol red-free OptiMEM (Gibco #11058-021) to a concentration of 2.4×10^5 cells/mL. 9 μL per well were then added to a white 384-well low volume microplate (Greiner #784080) and incubated for 24 hours under standard growth conditions.
Then compound was dispensed into each well using an Echo dispenser (BeckmanCoulter) to yield the pre-specified final concentration of the range of concentrations to be tested (typically 8-point serial concentrations ranging from either from 0.01 to 10 μM, or from 0.001 to 1 μM, or from 0.0001 to 0.1 μM), and being volume-corrected with 100% DMSO (0.5% final DMSO concentration in reaction mixtures).
After mixing and an incubation at room temperature for 15 min 1 μl of the NanoBRET probe (at 0.89 μM final concentration) was added to the microplate using a multichannel pipette. The plate was mixed and incubated in a 5% CO2 environment at 37° C. for 2 hours, and then 5 μL per well of a solution consisting of a 1:31.25 dilution of Nano-Glo substrate (Promega) and a 1:500 dilution of NanoLuc extracellular inhibitor (Promega) in phenol red-free OptiMEM was added to each well followed by another mixing step. Filtered luminescence was measured on an EnVision plate reader (PerkinElmer) equipped with a 460 nm filter (donor) and a 645 nm filter (acceptor). BRET ratios were plotted as concentration-response curves fitted to a sigmoidal 4-parameter logistic model to calculate IC50 values (Scigilian Analyze).

Chain of human PARG (PARG-NanoLuc fusion in HEK293T cells) (Q86W56 whole entry, the tested form may be a part): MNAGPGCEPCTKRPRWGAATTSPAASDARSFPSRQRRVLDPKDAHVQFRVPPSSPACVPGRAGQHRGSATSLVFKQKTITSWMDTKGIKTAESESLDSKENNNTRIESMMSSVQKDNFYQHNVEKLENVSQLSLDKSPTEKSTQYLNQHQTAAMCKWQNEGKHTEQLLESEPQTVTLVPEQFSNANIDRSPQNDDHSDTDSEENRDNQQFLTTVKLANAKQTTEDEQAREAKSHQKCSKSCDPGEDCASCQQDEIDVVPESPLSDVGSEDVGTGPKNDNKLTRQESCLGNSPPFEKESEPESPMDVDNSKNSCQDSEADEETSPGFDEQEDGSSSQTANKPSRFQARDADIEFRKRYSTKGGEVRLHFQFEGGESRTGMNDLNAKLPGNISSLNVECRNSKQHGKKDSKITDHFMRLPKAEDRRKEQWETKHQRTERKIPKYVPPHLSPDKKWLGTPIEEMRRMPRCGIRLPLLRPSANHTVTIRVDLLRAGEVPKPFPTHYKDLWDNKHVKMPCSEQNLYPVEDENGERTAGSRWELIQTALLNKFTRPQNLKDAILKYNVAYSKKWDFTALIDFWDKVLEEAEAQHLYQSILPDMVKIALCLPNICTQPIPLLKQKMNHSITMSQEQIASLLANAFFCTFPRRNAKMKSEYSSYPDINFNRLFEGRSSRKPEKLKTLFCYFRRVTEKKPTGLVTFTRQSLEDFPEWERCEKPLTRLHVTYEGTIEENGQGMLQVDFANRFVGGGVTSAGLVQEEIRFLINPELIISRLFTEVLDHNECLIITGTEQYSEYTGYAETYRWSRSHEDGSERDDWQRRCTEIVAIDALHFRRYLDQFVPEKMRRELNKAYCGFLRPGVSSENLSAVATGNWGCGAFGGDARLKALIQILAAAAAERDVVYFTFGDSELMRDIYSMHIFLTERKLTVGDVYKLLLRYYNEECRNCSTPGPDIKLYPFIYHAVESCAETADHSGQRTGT
Chain of Recombinant His-tagged human PARG protein (Q86W56 whole entry): as the sequence (Q86W56 whole entry, the tested form may be a part) above

| IC50 [1] [nM] | GI50 (NCI-H1650; Homo sapiens, NCI-H1650) [nM] | IC50 [2] [nM] | Structure (SMILES) | GI50 (RMUG-S) [nM] | GI50 (NCI-H1650) [nM] |
| --- | --- | --- | --- | --- | --- |
| < 30 | 500 to 2000 | 30 to 99 | CO/N=c1\[nH]c2c(N3CCN(C)[C@H](C)C3)cc(S(=O)(=O)NC3(C)CC3)cc2c(=O)n1Cc1cnn(C)c1 [Example 21, (2E)-2-methoxyimino-N-(1-methylcyclopropyl)-3-[(1-methylpyrazol-4-yl)methyl]-4-oxo-8-[(3R)-3,4-dimethylpiperazin-1-yl]-1H-quinazoline-6-sulfonamide] | 500 to 2000 | – |
| < 30 | < 500 | < 30 | CO/N=c1\[nH]c2c(N3CCN(C(=O)N(C)CC(F)(F)F)[C@H](C)C3)cc(S(=O)(=O)NC3(C)CC3)cc2c(=O)n1Cc1cnn(C)c1 [Example 37, (R,E)-4-(2-(methoxyimino)-3-((1-methyl-1H-pyrazol-4-yl)methyl)-6-(N-(1-methylcyclopropyl)sulfamoyl)-4-oxo-1,2,3,4-tetrahydroquinazolin-8-yl)-N,2-dimethyl-N-(2,2,2-trifluoroethyl)piperazine-1-carboxamide] | – | – |
| < 30 | < 500 | < 30 | CO/N=c1\[nH]c2c(N3CCN(C(=O)N4CCC(F)(F)C4)[C@H](C)C3)cc(S(=O)(=O)NC3(C)CC3)cc2c(=O)n1Cc1cnn(C)c1 [Example 36, (R,E)-8-(4-(3,3-difluoropyrrolidine-1-carbonyl)-3-methylpiperazin-1-yl)-2-(methoxyimino)-3-((1-methyl-1H-pyrazol-4-yl)methyl)-N-(1-methylcyclopropyl)-4-oxo-1,2,3,4-tetrahydroquinazoline-6-sulfonamide] | – | – |

Continued, compound first:

| Structure (SMILES) | IC50 [1] [nM] | GI50 (NCI-H1650; Homo sapiens, NCI-H1650) [nM] | IC50 [2] [nM] | GI50 (RMUG-S) [nM] | GI50 (NCI-H1650) [nM] |
| --- | --- | --- | --- | --- | --- |
| CO/N=c1\[nH]c2c(C3CCN[C@H](C)C3)cc(S(=O)(=O)NC3(C)CC3)cc2c(=O)n1Cc1cnn(C)c1 (stereo partly drawn) [Example 24, (2E)-2-methoxyimino-N-(1-methylcyclopropyl)-3-[(1-methylpyrazol-4-yl)methyl]-4-oxo-8-[(2R)-2-methyl-4-piperidyl]-1H-quinazoline-6-sulfonamide] | < 30 | > 2000 | 100 to 1000 | 2000 to 9000 | – |
| CO/N=c1\[nH]c2c(C3=C[C@@H](C)N(C(=O)C4(C)CC4)CC3)cc(S(=O)(=O)NC3(C)CC3)cc2c(=O)n1Cc1cnn(C)c1 [Example 30, (2E)-2-methoxyimino-N-(1-methylcyclopropyl)-3-[(1-methylpyrazol-4-yl)methyl]-4-oxo-8-[(2R)-2-methyl-1-(1-methylcyclopropanecarbonyl)-3,6-dihydro-2H-pyridin-4-yl]-1H-quinazoline-6-sulfonamide/(2E)-2-methoxyimino-N-(1-methylcyclopropyl)-3-[(1-methylpyrazol-4-yl)methyl]-4-oxo-8-[(6R)-6-methyl-1-(1-methylcyclopropanecarbonyl)-3,6-dihydro-2H-pyridin-4-yl]-1H-quinazoline-6-sulfonamide] | < 30 | – | < 30 | < 500 | < 500 |
| CO/N=c1\[nH]c2c(C3CCN(C)[C@H](C)C3)cc(S(=O)(=O)NC3(C)CC3)cc2c(=O)n1Cc1cnn(C)c1 (stereo partly drawn) [Example 25, (2E)-2-methoxyimino-N-(1-methylcyclopropyl)-3-[(1-methylpyrazol-4-yl)methyl]-4-oxo-8-[(2R)-1,2-dimethyl-4-piperidyl]-1H-quinazoline-6-sulfonamide] | < 30 | 500 to 2000 | 30 to 99 | 500 to 2000 | – |
| CO/N=c1\[nH]c2c(-c3ccc(C(=O)N(C)C)nc3)cc(S(=O)(=O)NC3(C)CC3)cc2c(=O)n1Cc1cnn(C)c1 [Example 19, (E)-5-(2-(methoxyimino)-3-((1-methyl-1H-pyrazol-4-yl)methyl)-6-(N-(1-methylcyclopropyl)sulfamoyl)-4-oxo-1,2,3,4-tetrahydroquinazolin-8-yl)-N,N-dimethylpicolinamide] | < 30 | 500 to 2000 | < 30 | – | – |
| CO/N=c1\[nH]c2c(-c3ccc(CN)cc3)cc(S(=O)(=O)NC3(C)CC3)cc2c(=O)n1Cc1cnn(C)c1 [Example 17, (E)-8-(4-(aminomethyl)phenyl)-2-(methoxyimino)-3-((1-methyl-1H-pyrazol-4-yl)methyl)-N-(1-methylcyclopropyl)-4-oxo-1,2,3,4-tetrahydroquinazoline-6-sulfonamide] | 30 to 99 | > 2000 | 100 to 1000 | – | – |
| CO/N=c1\[nH]c2c(-c3cnc(C(=O)N(C)C)[nH]3)cc(S(=O)(=O)NC3(C)CC3)cc2c(=O)n1Cc1cnn(C)c1 [Example 23, (E)-5-(2-(methoxyimino)-3-((1-methyl-1H-pyrazol-4-yl)methyl)-6-(N-(1-methylcyclopropyl)sulfamoyl)-4-oxo-1,2,3,4-tetrahydroquinazolin-8-yl)-N,N-dimethyl-1H-imidazole-2-carboxamide] | < 30 | 500 to 2000 | < 30 | – | – |
| CON=c1[nH]c2ccc(S(=O)(=O)NC3(C#N)CC3)cc2c(=O)n1Cc1cnn(C)c1 [Example 9, N-(1-cyanocyclopropyl)-2-methoxyimino-3-[(1-methylpyrazol-4-yl)methyl]-4-oxo-1H-quinazoline-6-sulfonamide] | < 30 | > 2000 | 30 to 99 | – | – |
